For orientation: Ki means the equilibrium dissociation constant of an inhibitor or competing ligand from its target. Low values mean higher affinity, high ones lower affinity. A word on the melting point: it is the temperature, or range, at which the solid turns liquid.

In data set [1] the target is T1, glycine-binding site of the NMDA receptor channel (Rattus norvegicus, UniProt P35439).
T1 construct: from tissue; host or cells: rat brain cortex and hippocampus membrane homogenate (male Wistar rats, Charles River)
Put plainly: Receptor binding study, displacement of (3H)-MDL 105.519 in rat brain membrane homogenates. Conditions: rat cortex and hippocampus membrane homogenate; (3H)-MDL 105.519 radioligand; Ki from IC50 by Cheng-Prusoff. On the procedure: The studies for determination of the affinity of the substituted 1,5-dihydropyrrol-2-one derivatives of the general formula I for the glycine-binding site of the NMDA receptor channel were carried out on brain membrane homogenates (homogenate of the cortex and hippocampus area from the brain of male rats, Wistar strain, Charles River, WIGA GmbH, Sulzbach, Germany) by the method of Baron B. M. et al, J. Pharmacol. Exp. Ter., vol. 279, pp. 62-68 (1996).
Specifically, the cortex and hippocampus were exposed from freshly removed rat brains and homogenized in 5 mmol/l TRIS-acetate buffer, 0.32 mol/l sucrose pH 7.4 (10 ml/g fresh weight) with a Potter homogenizer (Braun, Melsungen, Germany, 10 plunger strokes at 500 revolutions per minute (rpm)), while cooling with ice, and the mixture was then centrifuged for 10 minutes at 1,000 g and 4° C. The first supernatant was collected and the sediment was homogenized again with 5 mmol/l TRIS-acetate buffer, 0.32 mol/l sucrose pH 7.4 (5 ml/g of original fresh weight of rat brain cortex and hippocampus) with the Potter homogenizer (10 plunger strokes at 500 rpm), while cooling with ice, and the mixture was centrifuged for 10 minutes at 1,000 g and 4° C. The resulting supernatant was combined with the supernatant from the first centrifugation and the mixture was centrifuged at 17,000 g for 20 minutes at 4° C. The supernatant after this centrifugation was discarded and the membrane sediment was taken up in 5 mmol/l TRIS-acetate buffer pH 8.0 (20 ml/g original fresh weight) and the mixture was homogenized with 10 plunger strokes at 500 rpm.
The membrane homogenate was then incubated for 1 hour at 4° C. and centrifuged for 30 minutes at 50,000 g and 4° C. The supernatant was discarded and the centrifuge tube with the membrane sediment was closed with Parafilm and frozen for 24 hours at −20° C. On the following day the membrane sediment was thawed and taken up in ice-cold 5 mmol/l TRIS-acetate buffer, 0.1% saponin (weight/volume) pH 7.0 (10 ml/g original fresh weight) and the mixture was homogenized with 10 plunger strokes at 500 rpm and then centrifuged for 20 minutes at 50,000 g and 4° C. The resulting supernatant was discarded and the sediment was taken up in a small volume of 5 mmol/l TRIS-acetate buffer pH 7.0 (approx. 2 ml/g original fresh weight) and the mixture was homogenized again with 10 plunger strokes at 500 rpm. After the protein content had been determined, the membrane homogenate was adjusted to a protein concentration of 10 mg protein/ml with 5 mmol/l TRIS-acetate buffer pH 7.0 and frozen in aliquots until the analysis was carried out.
For the receptor binding test, aliquots were thawed, diluted 1:10 with 5 mmol/l TRIS-acetate buffer pH 7.0 and homogenized with the Potter homogenizer with 10 plunger strokes at 500 rpm, while cooling with ice, and the mixture was centrifuged for 60 minutes at 55,000 g at 4° C. The supernatant was decanted and the membrane sediment was adjusted to a protein concentration of 1 mg/ml with ice-cold 50 mmol/l TRIS-acetate buffer pH 7.0 and the mixture was homogenized again with 10 plunger strokes at 500 rpm and kept in suspension while stirring on a magnetic stirrer in an ice-bath. In each case 100 μl of this membrane homogenate per 1 ml batch were employed in the receptor binding test (0.1 mg protein/ml in the final batch).
In the binding test, 50 mmol/l TRIS-acetate buffer pH 7.0 were employed as the buffer and […] (^3H)-MDL 105.519 (Baron B. M. at al, J. Pharmacol. Exp. Ther., vol 279, pp. 62-68 (1996)) was employed as the radioactive ligand. The content of non-specific binding was determined in the presence of 1 mmol/l glycine.
In further batches, the compounds according to the invention were added in concentration series and the displacement of the radioactive ligand from its specific binding to the glycine binding site of the NMDA receptor channel was determined. […]

Data set [2] concerns formalin-induced nociceptive reaction (licking and biting of the paw). The data set is described as follows: Formalin test in mice, second (late) phase. Format: in vivo. Conditions: male NMRI mice. On the procedure:
The studies for determination of the antinociceptive action of substituted 1,5-dihydropyrrol-2-one derivatives according to the invention were carried out in the formalin test in male albino mice (NMRI, 25-35 g, Iffa Credo, Belgium).
In the formalin test, a distinction is made between the first (early) phase (0-15 min after formalin injection) and the second (late) phase (15-60 min after formalin injection) (D. Dubuisson et al, Pain 4, 161-174 (1977)). The early phase represents a model for acute pain, as a direct reaction to the formalin injection, while the late phase is regarded as a model for persistent (chronic) pain (T. J. Coderre et al, Pain, vol. 52, pp. 259-285 (1993).
The compounds according to the invention were investigated in the second phase of the formalin test to obtain information on substance actions on chronic/inflammatory pain.
By a single subcutaneous formalin injection (20 μl, 1% aqueous solution) into the dorsal side of the right hind paw of freely mobile test animals, a nociceptive reaction was induced, which manifests itself in significant licking and biting of the paw affected.
For the investigation period in the second (late) phase of the formalin test, the nociceptive behaviour was recorded continuously by observing the animals. […] After injection of substances which have an antinociceptive action in the formalin test, the modes of behaviour described for the animals are reduced, and possibly even eliminated.
In a manner corresponding to the substance tests, in which the animals received an injection of the test substance before formalin, the vehicle, i.e. solvent (e.g. 0.9% NaCl solution), was injected into the control animals before the administration of formalin. The behaviour of the animals after administration of the substance (10 mice per substance dosage) was compared with a control group (10 mice).
On the basis of the quantification of the pain properties, the action of the substance in the formalin test was determined as a change from the control in per cent. The ED50 calculations were made by means of regression analysis. […]

Each structure is given as a SMILES string. A value given as a limit tells only on which side of the number the result lay.

For the molecule `NC1=C([N+](=O)[O-])C(=O)NC1=Cc1ccccc1` [Example 11, 4-Amino-5-benzylidene-3-nitro-1,5-dihydropyrrol-2-one], the melting point is greater than 260 °C. The molecule also yielded a Ki in data set [1] of 6 µM.

Regarding `COC1=C(N=O)C(=O)NC1=Cc1ccccc1` [Example 2, 5-Benzylidene-4-methoxy-3-nitroso-1,5-dihydropyrrol-2-one], the “% change with respect to the control at 10 mg/kg” value (shortened to “% change”) in data set [2] came to 36.3%.

In turn, `CNC1=C([N+](=O)[O-])C(=O)NC1=Cc1ccccc1` [Example 10, 5-Benzylidene-4-methylamino-3-nitro-1,5-dihydropyrrol-2-one] showed a melting point of 238 °C. Affinity in data set [1] was put at a Ki of 3 µM.

`CNC1=C(N=O)C(=O)NC1=Cc1ccccc1` [Example 5, 5-Benzylidene-4-methylamino-3-nitroso-1,5-dihydropyrrol-2-one]: the affinity in data set [1], expressed as Ki, was 60 µM.

In data set [1], `O=NC1=C(Nc2ccccc2)C(=Cc2ccccc2)NC1=O` [Example 4, 5-Benzylidene-3-nitroso-4-phenylamino-1,5-dihydropyrrol-2-one] showed a Ki of 72 µM.

In turn, `NC1=C(N=O)C(=O)NC1=Cc1ccccc1` [Example 6, 4-Amino-5-benzylidene-3-nitroso-1,5-dihydropyrrol-2-one] returned a Ki in data set [1] of 70 µM.

Consider `O=C1NC(=Cc2ccccc2)C(NCc2ccccc2)=C1[N+](=O)[O-]` [Example 9, 4-Benzylamino-5-benzylidene-3-nitro-1,5-dihydropyrrol-2-one], for which the melting point worked out at 218 °C. For the same molecule, in data set [1], the affinity corresponds to a Ki of 5 µM.

For `O=NC1=C(O)C(=Cc2ccccc2)NC1=O` [Example 1, 5-Benzylidene-4-hydroxy-3-nitroso-1,5-dihydro-pyrrol-2-one], in data set [2], the “% change” value was 63.9%.

`O=NC1=C(NCc2ccccc2)C(=Cc2ccccc2)NC1=O` [Example 3, 4-Benzylamino-5-benzylidene-3-nitroso-1,5-dihydropyrrol-2-one] displayed an inhibition constant (Ki) in data set [1] of 68 µM. In data set [2], the “% change” value stood at 47.6%.

In data set [1], `O=C1NC(=Cc2ccccc2)C(Nc2ccccc2)=C1[N+](=O)[O-]` [Example 8, 5-Benzylidene-3-nitro-4-phenylamino-1,5-dihydropyrrol-2-one] registered a Ki of 9 µM.

Values taken from patent US6642267B2, “Substituted 1,5-dihydropyrrol-2-one derivatives active as NMDA receptor antagonists for treatment of states of pain” (Gruenenthal GmbH, priority 1999, dated 2003).
